Measured values taken from PMC3921447, “Homologous and heterologous desensitization of guanylyl cyclase-B signaling in GH3 somatolactotropes” (Cell and Tissue Research, 2013).

Target: T1, GC-B (Rattus norvegicus, UniProt P16067)
T1 construct: rapid homologous desensitization of endogenous GC-B receptors in GH3 cells; endogenous in cells; host or cells: GH3 rat somatolactotrope cells
T1 sequence (P16067 17-1047): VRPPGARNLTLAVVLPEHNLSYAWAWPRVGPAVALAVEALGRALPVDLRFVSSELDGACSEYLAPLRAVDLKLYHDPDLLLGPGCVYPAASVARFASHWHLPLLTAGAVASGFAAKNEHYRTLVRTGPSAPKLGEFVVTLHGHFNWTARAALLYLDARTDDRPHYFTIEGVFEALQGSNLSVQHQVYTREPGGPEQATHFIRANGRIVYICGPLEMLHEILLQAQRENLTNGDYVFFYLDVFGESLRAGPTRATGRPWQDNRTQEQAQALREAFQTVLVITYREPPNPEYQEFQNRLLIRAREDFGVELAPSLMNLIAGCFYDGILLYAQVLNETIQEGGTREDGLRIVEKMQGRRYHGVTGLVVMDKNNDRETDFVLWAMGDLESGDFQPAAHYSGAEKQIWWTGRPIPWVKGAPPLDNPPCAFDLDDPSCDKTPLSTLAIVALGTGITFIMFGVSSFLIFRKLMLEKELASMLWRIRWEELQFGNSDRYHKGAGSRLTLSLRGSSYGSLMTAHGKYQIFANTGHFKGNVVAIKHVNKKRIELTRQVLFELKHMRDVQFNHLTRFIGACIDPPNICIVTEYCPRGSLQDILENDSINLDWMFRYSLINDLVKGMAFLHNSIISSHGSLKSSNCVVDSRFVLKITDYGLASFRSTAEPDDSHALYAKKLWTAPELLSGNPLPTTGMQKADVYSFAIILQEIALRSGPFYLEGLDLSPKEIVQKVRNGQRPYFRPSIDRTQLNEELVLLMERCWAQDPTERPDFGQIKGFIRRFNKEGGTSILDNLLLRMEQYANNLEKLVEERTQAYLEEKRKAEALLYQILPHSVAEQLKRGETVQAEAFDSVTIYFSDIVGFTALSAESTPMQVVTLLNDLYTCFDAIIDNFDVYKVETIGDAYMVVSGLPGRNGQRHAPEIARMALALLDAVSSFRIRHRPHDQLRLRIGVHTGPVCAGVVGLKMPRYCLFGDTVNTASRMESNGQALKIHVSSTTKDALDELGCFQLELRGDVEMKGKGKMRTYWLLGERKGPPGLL
Assay: GC-B protein expression by Western blot in GH3 cells
Format: cell-based
Conditions: 100 nM CNP, up to 24 h; n = 3; Fig. 4b
Method: GH3 cell lysates (from 1 × 10^6 cells) were prepared in lysis buffer (0.5 M TRIS pH 6.8, 10 % [v/v] glycerol, 1 % [w/v] SDS). Protein lysates were sonicated, boiled at 95 °C for 5 min, resolved by 10 % SDS-polyacrylamide gel electrophoresis, transferred to polyvivylidene difluoride membrane and probed for GC-B (1:2000 dilution) or β-actin (1:5000 dilution) expression. Appropriate horseradish-peroxidase-conjugated secondary antibodies were purchased from DAKO.
We next examined whether Npr2 or GC-B down-regulation (as determined by a reduction in Npr2 mRNA expression and or GC-B protein expression) mediated the inhibitory effects of sustained CNP exposure. The effect of CNP exposure on the expression of the endogenous Npr2 gene was examined by using qPCR. […] To establish whether down-regulation occurred at the protein level, total proteins were extracted from GH3 cells incubated for up to 24 h with 100 nM CNP.
Fig. 4 CNP fails to alter expression of Npr2 mRNA or GC-B protein in GH3 somatolactotrope cells. a GH3 cells were stimulated with 0 or 100 nM CNP for 24 h prior to extraction of total RNA, cDNA synthesis, and quantitative PCR for endogenous Npr2 expression. […] Blots were stripped and re-probed for β-actin. Panels are representative of three independent experiments (n = 3)

For `CC[C@H](C)[C@@H]1NC(=O)[C@H](CCCNC(=N)N)NC(=O)[C@H](CC(=O)O)NC(=O)[C@H](CC(C)C)NC(=O)[C@H](CCCCN)NC(=O)[C@H](CC(C)C)NC(=O)CNC(=O)[C@H](Cc2ccccc2)NC(=O)[C@@H](NC(=O)CNC(=O)[C@H](CCCCN)NC(=O)[C@H](CO)NC(=O)[C@H](CC(C)C)NC(=O)CN)CSSC[C@@H](C(=O)O)NC(=O)CNC(=O)[C@H](CC(C)C)NC(=O)CNC(=O)[C@H](CO)NC(=O)[C@H](CCSC)NC(=O)[C@H](CO)NC(=O)CNC1=O` [CNP, C-type natriuretic peptide], the GC-B protein expression was “failed to alter expression levels”.
